Results on three molecules are retold here after US6376169B1, “Method for diagnosing a vascular condition” (Queens University at Kingston, priority 1998, dated 2002).

Test [1] has as its system uPAR. The test can be described thus: uPAR protein and mRNA in cancer cells (Example 1). Format: cell-based. To be noted: 24 hours, standard conditions; 100 μM cobalt chloride; Tiron.
The subject of test [2] is uPAR. Kind of test: uPAR expression by flow cytometry (mAb 3937) on HTR-8/SVneo cells. Format: cell-based, human. The conditions noted are these: for effect on the inhibition by carbon monoxide of hypoxia-induced uPAR expression: compound in the medium, hypoxia + CO, two independent experiments. As for the experimental part: To determine whether hypoxia regulates the expression of certain genes (e.g., PAI-1, uPAR, RTP/Drg1) via an iron-containing heme protein, cells were cultured for up to 72 h at 20% oxygen in the presence or absence of either 100 μM cobalt chloride, or 30 mM sodium 4,5-dihydroxybenzene-1,3-disulfonate (Tiron), or 100 μM desferrioxamine mesylate (DFO) (Sigma Chemical CO., St. Louis, Mo.). Further confirmation of the role of a heme protein in hypoxic responses can be achieved by culturing cells under hypoxia in the presence of carbon monoxide, which maintains the heme protein in the oxy state and thereby blocks heme protein-mediated hypoxic responses. Thus, cells were also cultured for 24 h at 37° C. under hypoxic conditions in the presence of 30% carbon monoxide.
Determination of uPAR expression by flow cytometry. For flow cytometry, cells were released from flasks by incubation in cold PBS containing 5 mM EDTA. One million cells were then incubated for 1 h, at 4° C., with either 10 μg/ml of mAb 3937, or control mouse IgG2a, used at the same concentration. Bound antibody was detected using FITC-conjugated goat anti-mouse immunoglobulin. Cells were then fixed with 2% paraformaldehyde in PBS prior to analysis using a Coulter Elite Flow Cytometer.
(In general: A flow cytometer gives signals particle by particle.)

Test [3] deals with HTR-8/SVneo cells. The test can be described thus: In vitro invasion of HTR-8/SVneo cells through Matrigel. Format: cell-based, human. To be noted: for increase in invasion: 20% oxygen, 100 μM cobalt chloride or 30 mM Tiron; for Invasion Index (%) ± SE: standard = 100. The protocol:
In vitro invasion assay. An assay which employs reconstituted basement membrane (Matrigel; Collaborative Biomedical Products, Bedford, Mass.) as the substrate for invasion was used to determine the effect of hypoxia on the invasiveness of tumor cells. Costar Transwell inserts (6.5 mm diameter polycarbonate membrane, 8 μm pore; Corning Costar Corp., Cambridge, Mass.) were coated with 100 μl of a 1 mg/ml solution of Matrigel diluted in cold serum-free culture medium, placed in the wells of a 24-well tissue culture plate and allowed to air-dry for 12 h in a laminar flow cabinet. After reconstituting the Matrigel by incubating for 1 h with 100 μl of serum-free medium, 5.0×10^4 cells in 100 μl aliquots of serum-containing medium were added to the Transwells. […] Cells which invaded through the Matrigel and the pores of the underlying membrane were fixed for 10 min in Carnoy's fixative (25% acetic acid, 75% methanol) and stained for 3 h in 1% toluidine blue, 1% sodium borate. Following several washes in tap water, the membranes were removed with a small scalpel blade, placed on a microscope slide and coverslipped. The invasion index' was then determined by counting, under a microscope, the total number of stained cells in the underside of the polycarbonate membranes.
Alternatively, cells (e.g., HTR-8/SVneo, MDA-MB-231) were labeled by incubation for 24 h in the presence of 10 μCi/ml [^3H]-thymidine. The cells were then harvested, adjusted to a concentration of 5.0×10^5/ml, and 100 μl aliquots added in triplicate to the upper wells of the invasion chambers. After a 24-h incubation, cells in the upper and lower compartments of the chambers were harvested. The invasion index, reflecting the percentage of added cells which had invaded the Matrigel was determined by measurement of the radioactivity in the upper and lower compartments, as well as in the membrane.

Test [4] has as its system cell-associated uPA. The test can be described thus: Zymography of cell-associated plasminogen activators in MDA-MB-231 cell extracts. Format: cell-based, human. The protocol:
To assess the levels of plasminogen activators associated with cells cultured for 24 h under 20% and 1% O2, extracts were prepared by disrupting trypsinized cell pellets with 2% SDS in Tris-buffered saline (TBS; 10 mM Tris, 0.15 M NaCl, pH 7.5) using a Polytron homogenizer (Brinkmann Instruments, Rexdale, ON, Canada). The homogenates were centrifuged at 15,000 g for 15 min to remove insoluble materials and 100 μg of extracted protein were analyzed by casein-plasminogen gel zymography as described above.

Test [5] relates to uPAR. Kind of test: Binding of [125I]-prourokinase to HTR-8/SVneo cells (uPAR expression). Type of test: cell-based, human. To be noted: for Kd: Kd of [125I]-prourokinase on cells cultured with compound, read-out: Kd (nM) ± SEM; for Bmax (sites/cell) ± SEM: [125I]-prourokinase binding to cells cultured with compound; for increase in the expression of uPAR: flow cytometric and radioligand binding studies. As for the experimental part: Determination of uPAR expression by urokinase binding analysis. Measurement of uPAR expression by ligand binding analysis was performed using [^125I]-prourokinase as the ligand, as described (Zini J M, et al., Blood 79:2917 (1992)). Prourokinase was radiolabeled with ^125I, using Iodobeads, to a specific radioactivity of at least 10^6 cpm/μg. Cells were then chilled to 4° C., washed with cold PBS containing 1% BSA, and incubated for 2 h with increasing concentrations of[^125I]-prourokinase in the absence (to determine total binding) or presence (to determine non-specific binding) of a 100-fold molar excess of unlabeled prourokinase. Specific binding was defined as the difference between total and non-specific binding, and analyzed by non-linear curve fitting methods (least squares method) using the Kaliedograph software program (Synergy Software, Reading, Pa.).

Test [6] deals with MDA-MB-231 cells. The test can be described thus: In vitro invasion of MDA-MB-231 cells through Matrigel. Type of test: cell-based, human. To be noted: 1% O2 + 30% CO. The protocol:
In vitro invasion assay. An assay which employs reconstituted basement membrane (Matrigel; Collaborative Biomedical Products, Bedford, Mass.) as the substrate for invasion was used to determine the effect of hypoxia on the invasiveness of tumor cells. Costar Transwell inserts (6.5 mm diameter polycarbonate membrane, 8 μm pore; Corning Costar Corp., Cambridge, Mass.) were coated with 100 μl of a 1 mg/ml solution of Matrigel diluted in cold serum-free culture medium, placed in the wells of a 24-well tissue culture plate and allowed to air-dry for 12 h in a laminar flow cabinet. After reconstituting the Matrigel by incubating for 1 h with 100 μl of serum-free medium, 5.0×10^4 cells in 100 μl aliquots of serum-containing medium were added to the Transwells. Following a 24-h incubation under either 20% or 1% O2 in the absence or presence of 10 μg/ml blocking anti-uPAR antibody (3936), or under 1% O2+30% CO (to assess the role of a heme protein on invasion), cells on the surface of the Matrigel-coated polycarbonate membrane (non-invading cells) were removed by scraping with a cotton swab. […] The invasion index' was then determined by counting, under a microscope, the total number of stained cells in the underside of the polycarbonate membranes.

The structures appear in SMILES notation. Entries after “also recorded” stand apart in the source; their conditions may differ.

What is called Kd is the equilibrium constant for the complex coming apart. `[Cl][Co][Cl]` [cobalt chloride]: in test [1], the “uPAR protein and mRNA levels” value was “elevated uPAR protein and mRNA levels”. The “effect on the inhibition by carbon monoxide of hypoxia-induced uPAR expression” value in test [2] was “completely prevented”. Besides, the increase in invasion in test [3] was 24.6±8.4%. The “Invasion Index (%) ± SE” value in test [3] (Standard (20% O2) + compound) is listed as 124.6 ± 8.4%. Besides, in test [4] (culture with cobalt chloride), the “cell-associated uPA levels” value is listed as “increased cell-associated uPA”. Moreover, in test [5], the Kd turned out to be 3.58 ± 0.69 nM and the “Bmax (sites/cell) ± SEM” value is on record as 285,711 ± 38,324 sites/cell. Besides, the “increase in the expression of uPAR” value in test [5] (cobalt chloride) amounted to 28%.
For `O=S(=O)([O-])c1cc(O)c(O)c(S(=O)(=O)[O-])c1.[Na+].[Na+]` [Tiron, sodium 4,5-dihydroxybenzene-1,3-disulfonate], in test [2], the “effect on the inhibition by carbon monoxide of hypoxia-induced uPAR expression” value was “completely prevented”. In test [3], this molecule had an increase in invasion of 29.3±12.7%. Further, in test [3] (Standard (20% O2) + compound), the “Invasion Index (%) ± SE” value was determined as 129.3 ± 12.7%. In test [5], the Kd is 8.08 ± 1.11 nM and the “Bmax (sites/cell) ± SEM” value is 623,213 ± 102,360 sites/cell. In addition, the “increase in the expression of uPAR” value in test [5] (Tiron) was determined as 3 fold.
As to `[C-]#[O+]` [carbon monoxide], the “inhibition of hypoxia-induced expression of uPAR” value in test [2] (1% O2 + 20% carbon monoxide, 24 h, flow cytometry) amounted to 56%. In test [3] (1% oxygen + 20% carbon monoxide), the “inhibition of hypoxia-stimulated invasion” value came out at 87%. In addition, the “Invasion Index (%) ± SE” value in test [3] (Hypoxia (1% O2) + 20% CO) is 104.0 ± 8.5%. Further, the “effect on hypoxic increase in cell-associated uPA” value in test [4] (1% O2 + 30% CO, listed as CO) is given as “abrogated the hypoxic increase in cell-associated uPA; also recorded: prevented the effect of hypoxia on cell-associated uPA increases”. In test [6], the “effect on hypoxia-mediated increase in invasiveness” value is recorded as “completely abrogated”.
